Patent US20060057669A1, “Inactive transcription factor tif-ia and uses thereof” (priority 2002, published 2006)

Assays:
Pol I transcription [1] = assay: Pol I reporter plasmid pMrl930-BH co-transfection in NIH3T3 cells, Northern blot; format: cell-based; conditions: 0.25, 0.5 or 1 μg expression vector
Procedure: (C) Phosphorylation by RSK is necessary and sufficient for enhancing TIF-IA activity in vivo. NIH3T3 cells were co-transfected with 3 μg pMrl930-BH and lor 2.5 μg of pMT2-HA-CA-RSK2 (lanes 2, 3). Transcripts from the reporter plasmid were monitored on Northern blots. An ethidium bromide stain of cellular 18S and 28S rRNA is shown below.
(C) Transcriptional activity of TIF-IAS44A in vivo. NIH3T3 cells were cotransfected with 2.5 μg Pol I reporter plasmid (pMrl930-BH) and 0.25, 0.5 or 1 μg of pcDNA3.1-TIF-IA (lanes 2-4), TIF-IAS44A (lanes 5-7). Transcripts from the reporter plasmid were monitored on Northern blots. The amount of cellular 18S and 28S rRNA is shown below.
NIH3T3, HEK293T and CLL39 cells were cultured in Dulbecco's modified Eagles medium (DMEM) supplemented with 10% fetal calf serum. Cells were transfected with 5 μg of DNA per 10^6 cells using the calcium phosphate DNA coprecipitation method. Total RNA was isolated after 48 h and analyzed on Northern blots as described (Voit et al., EMBO J. 18 (1999), 1891-1899). Cellular pre-rRNA levels were monitored by hybridization to antisense RNA complementary to the first 155 nucleotides of unprocessed 45S pre-RNA. Transcripts from the rDNA reporter plasmid were monitored by hybridization to a riboprobe that is complementary to pUC sequences inserted between the rDNA promoter and terminator sequences of pMrl930-BH. […]

TIF-IB/SL1 = assay: Co-immunoprecipitation of TIF-IB/SL1 with TIF-IA mutants from HEK293T cells; format: binding, human
Procedure: (§1) (B) A mutant that mimics phosphorylation of TIF-IA at S199 fails to interact with Pol I and TIF-IB. FLAG-tagged wild-type TIF-IA or the indicated point mutants were overexpressed in HEK293T cells and immunoprecipitated from cell lysates with anti-FLAG antibodies (M2 agarose). Co-precipitated Pol I and TIF-IB/SL1 were visualized on Western blots with anti-RPA116 and anti-TAFI110 antibodies.
(§2) Immunoprecipitations were carried out from human cells overexpressing FLAG-tagged TIF-IA. Cells were lysed in IP buffer, cleared by centrifugation at 10,000×g for 30 min, and the supernatants were incubated for 4 hr at 4° C. with anti-FLAG (M2) agarose (Sigma). To analyze the interaction of TIF-IA with TIF-IB/SL1, the immunoprecipitates were washed with IP buffer and TIF-IB/SL1 was visualized on immunoblots with α-TAFI110 antibodies. To monitor the interaction of TIF-IA with Pol I, the immunoprecipitates were washed with IP buffer containing 600 mM NaCl and Pol I was analyzed on Western blots using antibodies against the second largest subunit of Pol I (RPA116) or PAF67 (Seither et al., J. Biol. Chem. 382 (2001), 1163-1170).
(§3) Given the importance of mTOR-mediated alterations in the phosphorylation pattern on TIF-IA activity, one could predict that either phosphorylation of S199, dephosphorylation of S44 or both regulate the interaction of TIF-IA with the Pol I transcription apparatus. It was therefore examined whether the S→A or S→D point mutant(s) were capable of interacting with Pol I and/or TIF-IB/SL1. For this, TIF-IA was precipitated from cells overexpressing either FLAG-tagged wild-type TIF-IA or the respective S199 and S44 mutant(s), and co-precipitated Pol I and TIF-IB/SL1 were visualized on Western blots.

Pol I = assay: Co-immunoprecipitation of Pol I with TIF-IA mutants from HEK293T cells; format: binding, human
Procedure: as §1, §2, §3

Pol I transcription [2] = assay: In vitro transcription: TIF-IA mutants restoring rDNA transcription of nuclear extract from density-arrested FM3A cells; format: biochemical, murine
Procedure: (A) Transcriptional activity of TIF-IA mutants in vitro. FLAG-tagged wild-type TIF-IA and the indicated single or double point mutants were overexpressed in HEK293T cells, immunopurified, and 20 and 40 ng were assayed for their capability to restore rDNA transcriptional activity of nuclear extract from density-arrested FM3A cells. The amount and purity of TIF-IA were estimated on silver-stained SDS-polyacrylamide gels and Western blots (data not shown).
(A) Transcriptional activity of TIF-IAS199A and TIF-IAS199D in vitro. FLAG-tagged wild-type TIF-IA and the indicated mutants were immunopurified from HEK293T cells, and 30 and 60 ng were assayed for their capability to restore transcriptional activity of nuclear extract from density-arrested FM3A cells. The amount and purity of TIF-IA were estimated on silver-stained SDS-polyacrylamide gels (data not shown).
(B) Transcriptional activity of TIF-IAS44A in vitro. FLAG-tagged wild-type TIF-IA and the indicated mutant were assayed for their transcriptional activity in vitro.
(§4) Nuclear extracts were prepared from exponentially growing (8×10^5 cells/ml), density-arrested or PD98059-treated (CN Bioscience, Bad Soden, Germany) 40 μM, 0.5 hr) or rapamycin-treated FM3A cells (ATCC, Manassas, USA). 25 μl assays contained 50 ng of template DNA (pMr600/EcoRI), 30 μg nuclear extract proteins and 12 mM Hepes-KOH, [pH8.0], 0.1 mM EDTA, 5 mM MgCl2, 80 mM KCl, 10 mM creatine phosphate, 12% (v/v) glycerol, 0.66 mM each of ATP, GTP and CTP, 0.01 mM UTP and 0.5 μCi [α-^32P]UTP (5000 Ci/mmol). After incubation for 60 min at 30° C., RNA was extracted and analyzed on non-denaturing 5% polyacrylamide gels
TIF-IA was immunopurified from untransfected NIH3T3 cells or from HEK293T cells overexpressing FLAG-tagged TIF-IA. 4×10^6 cells were lysed in 0.8 ml IP buffer (20 mM Tris-HCl [pH 7.4], 200 mM NaCl, 2 mM EDTA, 2 mM EGTA, 1% Triton X-100, 0.5 mM PMSF, 1 μg/ml aprotinin, 5 μg/ml leupeptin and 1 μg/ml pepstatin A), centrifuged at 10,000 g for 30 min, and the supernatants were incubated for 4 hr at 4° C. with either 10 μg anti-TIF-IA antibodies bound to 20 μl protein G-agarose or with anti-FLAG (M2) agarose (Sigma-Aldrich Corp., Missouri, USA). The immunocomplexes were successively washed with buffer AM (20 mM Tris-HCl [pH 8.0], 5 mM MgCl2, 0.1 mM EDTA, 20% glycerol) containing 400 and 100 mM KCl, respectively. The amount and purity of TIF-IA was estimated on silver-stained polyacrylamide gels and similar amounts of bead-bound TIF-IA were used in in vitro transcription assays. GST fusion proteins were expressed in E. coli BL21(DE3) and purified on Glutathione-Sepharose 4B according to the manufacturer's instructions.
To assess the functional relevance of S633 and S649 phosphorylation on transcriptional activity, the respective S→A and S→D single or double point mutants were purified from transfected cells and assayed for their capability to rescue transcription of extracts from density-arrested cells. […] Thus, phosphorylation of TIF-IA at S649 and S633 is required for transcriptional activity.
Phosphorylation of peptide a should inhibit TIF-IA activity, while phosphorylation of peptide b, e.g. S44, should augment TIF-IA activity.

HEK293T cells [3] = assay: Trypan blue staining; format: cell-based; conditions: data not shown
HEK293T cells [4] = assay: Quantitative fluorimetric viability assay with calcein-AM; format: cell-based; conditions: 24, 36, 48 and 60 hr after transfection; 2 μM calcein-AM
Procedure: (B) Quantitative fluorimetric viability assay with calcein-AM. HEK293T cells were transfected with TIF-IA or the indicated point mutants. […] Viable cells were measured 24, 36, 48 and 60 hr after transfection by incubation with […] calcein-AM. The gradual increase in fluorescence intensity was recorded with a fluorescence multi-well plate reader for 20 min with an excitation wavelength of 485 nm and an emission wavelength of 530 nm. The proliferation rate of mock-transfected cells and cells overexpressing TIF-IA is shown at the left. Plots show the accumulation of calcein fluorescence (arbitrary units) against time. Growth rates calculated from linear regression curves are shown at the right. Values are presented as the mean±SD from three independent experiments performed in duplicates.
Conversion of calcein-AM (calcein acetoxymethyl ester, (CN Bioscience GmbH, Bad Soden, Germany) to calcein was used to measure cell proliferation. 12 hr after transfection, HEK293T cells were seeded to 96-well micro-plates at 1×10^4 cells/well. After 24, 36, 48 and 60 hr, cells were washed with PBS, incubated with 2 μM calcein-AM, and the gradual increase in fluorescence intensity within the cells was recorded by a fluorescence multi-well plate reader (CytoFluor Series 4000/TC, PerSeptive Biosystems, (Applied Biosystems, Forster City, USA) for 20 min in 1 min intervals. Excitation wavelength used for measurements of fluorescence was 485 nm with a bandwidth of 20 nm; emission wavelength was 530 nm with a bandwidth of 25 nm. Under the experimental conditions used, there is a direct correlation between the accumulation ratio of intracellular calcein fluorescence and the number of viable cells. The data from three independent experiments were analyzed by Sigmaplot and expressed as the mean±standard deviation. For statistical analysis, student's t test was used. Differences with a P<0.01 were considered statistically significant.
Given the functional significance of ERK/RSK-directed TIF-IA phosphorylation on Pol I transcription, mutations that enhance or abrogate TIF-IA activity may have a positive or negative effect on cell growth. To test this, HEK293T cells were transfected with cDNAs encoding wild-type or mutant TIF-IA which harbor single or double point mutations at S649 and S633. The expression of TIF-IA was estimated on Western blots and the cellular growth rate was measured by calcein-AM staining. Calcein-AM is a non-fluorescent, hydrophobic compound that is rapidly hydrolyzed by intracellular esterases releasing hydrophilic fluorescent calcein. Thus, cellular calcein fluorescence correlates with the amount of viable cells. […] Cells expressing FLAG-tagged wild-type or mutant TIF-IA were stained with FITC-conjugated anti-FLAG antibodies, identified by FACS and cell numbers were calculated by measuring the ratio of stained cells versus an internal standard. […] Conversely, the number of cells expressing TIF-IAS649A was 33% lower than the control. […] Taken together, the results reveal a striking correlation between phosphorylation of TIF-IA at serine 649, cellular rRNA synthetic activity and cell cycle progression.

HEK293T cells [5] = assay: Cell enumeration by dual-parameter flow cytometry; format: cell-based; conditions: 60 hr after transfection
Procedure: (C) Cell enumeration by flow cytometry. HEK293T cells expressing wild-type TIF-IA or the S649 mutants were harvested 60 hours after transfection, stained with FITC-conjugated anti-FLAG M2 antibodies and analyzed by dual-parameter flow cytometry in a FACScan™ flow cytometer in the presence of CaliBRITE™ calibration beads. 60,000 events were recorded from each sample. The number of cells expressing FLAG-TIF-IA was calculated from the ratio between FITC-positive cells and counted beads.
HEK293T cells were harvested 60 hr after transfection with pcDNA-FLAG-TIF-IA, fixed with 2% paraformaldehyde and permeabilized with 0.1% Triton X-100 in PBS. […] Cell were analyzed with a FACSCan™ flow cytometer in the presence of CaliBRITE™ beads (Becton Dickinson, San Jose, USA). The number of cells expressing FLAG-TIF-IA was calculated from the ratio between FITC-positive cells and counted beads.
Given the functional significance of ERK/RSK-directed TIF-IA phosphorylation on Pol I transcription, mutations that enhance or abrogate TIF-IA activity may have a positive or negative effect on cell growth. […] The expression of TIF-IA was estimated on Western blots and the cellular growth rate was measured by calcein-AM staining. […] Thus, cellular calcein fluorescence correlates with the amount of viable cells. […]

HEK293T cells [6] = assay: Relative DNA content of sorted cells by FACS analysis; format: cell-based
Procedure: HEK293T cells were harvested 60 hr after transfection with pcDNA-FLAG-TIF-IA, fixed with 2% paraformaldehyde and permeabilized with 0.1% Triton X-100 in PBS. Transfected cells were labeled by incubation for 1 hr with 2 μg/ml FITC-conjugated anti-M2 antibodies (Sigma) and subsequently stained with […] propidium iodide (Sigma). Cell were analyzed with a FACSCan™ flow cytometer in the presence of CaliBRITE™ beads (Becton Dickinson, San Jose, USA). The number of cells expressing FLAG-TIF-IA was calculated from the ratio between FITC-positive cells and counted beads.
Given the functional significance of ERK/RSK-directed TIF-IA phosphorylation on Pol I transcription, mutations that enhance or abrogate TIF-IA activity may have a positive or negative effect on cell growth. To test this, HEK293T cells were transfected with cDNAs encoding wild-type or mutant TIF-IA which harbor single or double point mutations at S649 and S633. The expression of TIF-IA was estimated on Western blots and the cellular growth rate was measured by calcein-AM staining. […] Thus, cellular calcein fluorescence correlates with the amount of viable cells. […] Cells expressing FLAG-tagged wild-type or mutant TIF-IA were stained with FITC-conjugated anti-FLAG antibodies, identified by FACS and cell numbers were calculated by measuring the ratio of stained cells versus an internal standard. […]

Pol I transcription [7] = assay: In vitro transcription: TIF-IA mutants added to nuclear extract from exponentially growing FM3A cells; format: biochemical, murine; conditions: 20 and 40 ng added to 15 ug nuclear extract
Procedure: 20 and 40 ng of the indicated TIF-IA mutants were added to 15 ug nuclear extract from exponentially growing FM3A cells and rDNA transcription was assayed.
as §4
Given that phosphorylation of TIF-IA at serine 649 is essential for transcription, excess of TIF-IAS649A should impair Pol I transcription. To test this, we examined the effect of exogenous wild-type and mutant TIF-IA on transcriptional activity of extracts from exponentially growing cells.

TIF-IAS44A: TIF-IA mutant, S44 mutated to alanine
transcription of the Pol I reporter (Pol I transcription [1]): inactive | interaction with TIF-IB/SL1 (co-precipitated TAFI110) (TIF-IB/SL1): interacted with both Pol I and TIF-IB/SL1 | interaction with Pol I (co-precipitated RPA116) (Pol I): interacted with both Pol I and TIF-IB/SL1 | capability to rescue transcription of extracts from density-arrested cells (Pol I transcription [2]; S199 and S44 mutants, 30 and 60 ng): abolishment of transcriptional activity of TIF-IA

TIF-IAS633AS649D: printed once in b155, probably a misprint of TIF-IAS633AS649A
cell viability as cause of growth inhibition (HEK293T cells [3]): not due to decreased cell viability

TIF-IAS649D: TIF-IA point mutant, serine 649 replaced by aspartic acid
cellular growth rate by calcein-AM staining (HEK293T cells [4]): accelerated cell growth | number of cells higher compared to cells overexpressing wild-type TIF-IA (HEK293T cells [5]): 43% | increase of G2/M-phase cells (HEK293T cells [6]): 50% | effect on transcriptional activity of extracts from exponentially growing cells (Pol I transcription [7]): enhanced Pol I transcription | capability to rescue transcription of extracts from density-arrested cells (Pol I transcription [2]; S633/S649 mutants, 20 and 40 ng): activated Pol I transcription to a similar or even higher level compared to wild-type TIF-IA
